Values quoted from earlier work as cited in US20130079416A1 (BOIRON, priority 2010, published 2013).
Read-outs that look alike come from different tables or passages of the source.

Experiments:
[1] = rats, long time and very high doses, alone or in combination with phenazone (Johansson, 1981)
[2] = rat, oral, multiple doses; methemoglobinemia-carboxyhaemoglobin, changes in blood cell and erythrocyte count
[3] = human

Structure (SMILES): CCOc1ccc(NC(C)=O)cc1 [phenacetin, N-(4-ethoxyphenyl)acetamide]
- Incidence of renal tumours [1]: slightly increases the incidence of renal tumours
- Lowest toxic dose (TDL0) [2]: 10 mg/kg/ mg/kg/4 weeks (intermittent)
- Lowest toxic dose (TDL0) ([3]; acute, route not indicated): 74 mg/kg
- Lowest toxic dose (TDL0) ([3]; oral, multiple doses, tumorigenic-carcinogenic according to RTECS criteria, renal tumours): 80 mg/kg/63 mg/kg/63 years (intermittent)
